Measured values taken from ChEMBL document CHEMBL2073962, “Wild-type breast cancer resistance protein (BCRP/ABCG2) is a methotrexate polyglutamate transporter” (Cancer Res, 2003).

Experiments:
[1] = molecular target: T1, Broad substrate specificity ATP-binding cassette transporter ABCG2 (Homo sapiens, UniProt Q9UNQ0); assay: TP_TRANSPORTER: inhibition of MTX in membrane vesicles from BCRP-expressing MCF7 cells; type: functional, cell membranes, Membrane vesicle
T1 sequence (Q9UNQ0 whole entry): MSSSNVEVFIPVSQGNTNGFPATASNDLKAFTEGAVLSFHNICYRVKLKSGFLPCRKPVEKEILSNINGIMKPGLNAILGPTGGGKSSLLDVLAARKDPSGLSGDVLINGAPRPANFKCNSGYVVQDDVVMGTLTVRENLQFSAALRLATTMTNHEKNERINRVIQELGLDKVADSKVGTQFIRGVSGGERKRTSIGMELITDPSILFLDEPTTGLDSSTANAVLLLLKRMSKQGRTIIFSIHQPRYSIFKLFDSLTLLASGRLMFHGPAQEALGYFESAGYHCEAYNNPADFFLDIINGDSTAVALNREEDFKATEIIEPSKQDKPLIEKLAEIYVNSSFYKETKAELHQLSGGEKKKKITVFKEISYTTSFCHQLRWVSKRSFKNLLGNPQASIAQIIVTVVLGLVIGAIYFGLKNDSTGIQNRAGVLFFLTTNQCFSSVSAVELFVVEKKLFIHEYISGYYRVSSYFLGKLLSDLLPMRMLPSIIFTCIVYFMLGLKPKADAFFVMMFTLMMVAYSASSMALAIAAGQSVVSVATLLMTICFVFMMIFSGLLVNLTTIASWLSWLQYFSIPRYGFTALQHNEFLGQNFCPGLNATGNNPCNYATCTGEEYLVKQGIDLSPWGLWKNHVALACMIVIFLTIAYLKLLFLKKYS

[2] = molecular target: T1, Broad substrate specificity ATP-binding cassette transporter ABCG2; assay: (§1) TP_TRANSPORTER: uptake (vesicle) in membrane vesicles from BCRP-expressing MCF7 cells; type: functional, cell membranes
[3] = molecular target: T1, Broad substrate specificity ATP-binding cassette transporter ABCG2; assay: TP_TRANSPORTER: inhibition of MTX update by Mitoxantrone at a concentration of 50uM in membrane vesicles from BCRP-expressing MCF7 cells; type: functional, cell membranes, Membrane vesicle; set-up: scale not given: the % may be the effect or the level left; conditions: mcf7, 50 µM
[4] = substrate: CN(Cc1cnc2nc(N)nc(N)c2n1)c1ccc(C(=O)N[C@@H](CCC(=O)O)C(=O)O)cc1; assay: as §1; type: functional, cell membranes

COc1ccc2c3c([nH]c2c1)[C@H](C=C(C)C)N1C(=O)[C@@H]2CCCN2C(=O)[C@@H]1C3 [FUMITREMORGIN] was tested, and the Activity [1] was “inhibitor []”.

In the case of CN(Cc1cnc2nc(N)nc(N)c2n1)c1ccc(C(=O)N[C@@H](CCC(=O)N[C@@H](CCC(=O)N[C@@H](CCC(=O)O)C(=O)O)C(=O)O)C(=O)O)cc1, the Activity [2] is reported as “substrate []”.

CN(Cc1cnc2nc(N)nc(N)c2n1)c1ccc(C(=O)N[C@@H](CCC(=O)N[C@@H](CCC(=O)N[C@@H](CCC(=O)N[C@@H](CCC(=O)O)C(=O)O)C(=O)O)C(=O)O)C(=O)O)cc1 was tested, and the Activity [2] was “substrate []”.

Molecule O=C1c2c(O)ccc(O)c2C(=O)c2c(NCCNCCO)ccc(NCCNCCO)c21 [MITOXANTRONE] has an Activity [3] of 50%.

B1: Broad substrate specificity ATP-binding cassette transporter ABCG2 (Homo sapiens) (protein)
chain: T1 sequence (Q9UNQ0 whole entry)
Work on B1 yielded a Km [4] of 680 µM.
